# Test results as given in ChEMBL document CHEMBL1146950, “Matrix compare analysis discriminates subtle structural differences in a family of novel antiproliferative agents, diaryl-3-hydroxy-2,3,3a,10a-tetrahydrobenzo[b]cycylopenta[e]azepine-4,10(1H,5H)-diones” (2006).
# Tests used:
# [1] = test system: HOP-62; assay: Antiproliferative activity against HOP62 cell line; type: functional, Homo sapiens; design: unit not given here
# [2] = test system: NCI-H460; assay: Antiproliferative activity against NCI-H460 cell line; type: functional, Homo sapiens
# [3] = target: Epidermal growth factor receptor (Homo sapiens) (UniProt P00533); assay: Inhibition of EGFR at 10 uM in presence of 0.1 uM ATP
# [4] = target: Receptor tyrosine-protein kinase erbB-2 (Homo sapiens) (UniProt P04626); assay: Inhibition of ErbB2 at 10 uM in presence of 0.1 uM ATP
# [5] = target: Insulin-like growth factor 1 receptor (Homo sapiens) (UniProt P08069); assay: Inhibition of IGF1R at 10 uM in presence of 0.1 uM ATP
# [6] = target: Vascular endothelial growth factor receptor 1 (Homo sapiens) (UniProt P17948); assay: Inhibition of VEGFR1 at 10 uM in presence of 0.1 uM ATP
# [7] = target: Vascular endothelial growth factor receptor 2 (Homo sapiens) (UniProt P35968); assay: Inhibition of VEGFR2 at 10 uM in presence of 0.1 uM ATP
# [8] = target: Angiopoietin-1 receptor (Homo sapiens) (UniProt Q02763); assay: Inhibition of TIE2 at 10 uM in presence of 0.1 uM ATP
# [9] = target: T1, Ephrin type-B receptor 4 (Homo sapiens) (UniProt P54760); assay: Inhibition of EPHB4 at 10 uM in presence of 0.1 uM ATP
# T1 sequence (whole entry): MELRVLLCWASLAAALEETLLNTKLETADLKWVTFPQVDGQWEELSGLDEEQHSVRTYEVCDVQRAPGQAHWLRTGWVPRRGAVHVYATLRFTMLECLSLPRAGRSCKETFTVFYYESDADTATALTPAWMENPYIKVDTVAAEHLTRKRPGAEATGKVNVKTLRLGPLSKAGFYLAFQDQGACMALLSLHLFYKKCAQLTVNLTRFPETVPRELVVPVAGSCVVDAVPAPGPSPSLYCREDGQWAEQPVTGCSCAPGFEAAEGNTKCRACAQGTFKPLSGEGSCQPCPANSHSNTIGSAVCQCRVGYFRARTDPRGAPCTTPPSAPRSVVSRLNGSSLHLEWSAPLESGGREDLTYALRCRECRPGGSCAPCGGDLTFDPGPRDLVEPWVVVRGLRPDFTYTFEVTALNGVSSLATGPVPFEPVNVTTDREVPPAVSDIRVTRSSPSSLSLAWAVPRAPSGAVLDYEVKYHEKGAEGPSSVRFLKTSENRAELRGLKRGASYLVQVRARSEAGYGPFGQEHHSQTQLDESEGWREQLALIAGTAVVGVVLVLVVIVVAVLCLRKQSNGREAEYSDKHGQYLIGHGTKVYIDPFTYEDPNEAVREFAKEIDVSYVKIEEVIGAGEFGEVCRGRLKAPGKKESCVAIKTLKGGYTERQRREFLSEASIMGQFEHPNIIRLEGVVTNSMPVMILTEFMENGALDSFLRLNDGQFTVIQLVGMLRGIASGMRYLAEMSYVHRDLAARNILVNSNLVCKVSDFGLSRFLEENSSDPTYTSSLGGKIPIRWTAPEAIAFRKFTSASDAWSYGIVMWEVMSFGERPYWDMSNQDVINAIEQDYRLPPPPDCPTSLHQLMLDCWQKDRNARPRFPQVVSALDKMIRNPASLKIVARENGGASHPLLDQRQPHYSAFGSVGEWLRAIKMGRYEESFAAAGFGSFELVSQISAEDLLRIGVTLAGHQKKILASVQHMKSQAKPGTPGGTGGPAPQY
# Sequence of Receptor tyrosine-protein kinase erbB-2 (Homo sapiens) (P04626 whole entry): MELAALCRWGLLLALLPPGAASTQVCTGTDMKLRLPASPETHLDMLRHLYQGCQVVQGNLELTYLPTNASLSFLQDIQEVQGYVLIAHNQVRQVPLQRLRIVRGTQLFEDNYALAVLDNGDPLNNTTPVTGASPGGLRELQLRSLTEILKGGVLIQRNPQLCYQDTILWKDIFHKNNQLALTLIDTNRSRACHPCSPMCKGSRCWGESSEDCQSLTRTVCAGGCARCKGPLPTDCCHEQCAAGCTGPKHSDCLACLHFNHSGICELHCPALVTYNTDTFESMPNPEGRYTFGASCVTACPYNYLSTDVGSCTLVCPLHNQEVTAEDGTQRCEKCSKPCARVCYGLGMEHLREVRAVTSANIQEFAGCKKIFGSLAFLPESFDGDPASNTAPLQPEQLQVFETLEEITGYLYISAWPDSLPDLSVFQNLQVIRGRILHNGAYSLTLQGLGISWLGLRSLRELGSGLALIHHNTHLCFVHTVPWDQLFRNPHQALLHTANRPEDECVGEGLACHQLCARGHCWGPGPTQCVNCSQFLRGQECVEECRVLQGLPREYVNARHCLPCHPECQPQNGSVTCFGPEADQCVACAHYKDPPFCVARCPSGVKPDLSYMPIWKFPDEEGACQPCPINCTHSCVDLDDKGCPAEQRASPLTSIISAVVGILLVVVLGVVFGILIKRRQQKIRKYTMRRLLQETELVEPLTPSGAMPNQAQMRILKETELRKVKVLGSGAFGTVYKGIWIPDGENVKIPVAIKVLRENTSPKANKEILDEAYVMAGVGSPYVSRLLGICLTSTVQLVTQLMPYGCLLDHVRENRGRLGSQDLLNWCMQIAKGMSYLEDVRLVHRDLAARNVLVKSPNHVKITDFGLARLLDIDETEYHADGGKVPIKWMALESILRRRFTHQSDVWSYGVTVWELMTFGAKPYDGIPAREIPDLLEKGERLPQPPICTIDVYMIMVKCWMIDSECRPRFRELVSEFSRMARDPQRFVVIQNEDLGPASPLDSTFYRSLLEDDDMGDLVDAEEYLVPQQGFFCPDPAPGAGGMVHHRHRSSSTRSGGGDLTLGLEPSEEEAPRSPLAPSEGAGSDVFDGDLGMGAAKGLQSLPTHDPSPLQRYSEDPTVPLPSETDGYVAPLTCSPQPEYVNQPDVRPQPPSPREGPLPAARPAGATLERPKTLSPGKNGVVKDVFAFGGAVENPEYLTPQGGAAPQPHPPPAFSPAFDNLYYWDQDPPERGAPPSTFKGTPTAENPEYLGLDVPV
# Sequence of Angiopoietin-1 receptor (Homo sapiens) (Q02763 whole entry): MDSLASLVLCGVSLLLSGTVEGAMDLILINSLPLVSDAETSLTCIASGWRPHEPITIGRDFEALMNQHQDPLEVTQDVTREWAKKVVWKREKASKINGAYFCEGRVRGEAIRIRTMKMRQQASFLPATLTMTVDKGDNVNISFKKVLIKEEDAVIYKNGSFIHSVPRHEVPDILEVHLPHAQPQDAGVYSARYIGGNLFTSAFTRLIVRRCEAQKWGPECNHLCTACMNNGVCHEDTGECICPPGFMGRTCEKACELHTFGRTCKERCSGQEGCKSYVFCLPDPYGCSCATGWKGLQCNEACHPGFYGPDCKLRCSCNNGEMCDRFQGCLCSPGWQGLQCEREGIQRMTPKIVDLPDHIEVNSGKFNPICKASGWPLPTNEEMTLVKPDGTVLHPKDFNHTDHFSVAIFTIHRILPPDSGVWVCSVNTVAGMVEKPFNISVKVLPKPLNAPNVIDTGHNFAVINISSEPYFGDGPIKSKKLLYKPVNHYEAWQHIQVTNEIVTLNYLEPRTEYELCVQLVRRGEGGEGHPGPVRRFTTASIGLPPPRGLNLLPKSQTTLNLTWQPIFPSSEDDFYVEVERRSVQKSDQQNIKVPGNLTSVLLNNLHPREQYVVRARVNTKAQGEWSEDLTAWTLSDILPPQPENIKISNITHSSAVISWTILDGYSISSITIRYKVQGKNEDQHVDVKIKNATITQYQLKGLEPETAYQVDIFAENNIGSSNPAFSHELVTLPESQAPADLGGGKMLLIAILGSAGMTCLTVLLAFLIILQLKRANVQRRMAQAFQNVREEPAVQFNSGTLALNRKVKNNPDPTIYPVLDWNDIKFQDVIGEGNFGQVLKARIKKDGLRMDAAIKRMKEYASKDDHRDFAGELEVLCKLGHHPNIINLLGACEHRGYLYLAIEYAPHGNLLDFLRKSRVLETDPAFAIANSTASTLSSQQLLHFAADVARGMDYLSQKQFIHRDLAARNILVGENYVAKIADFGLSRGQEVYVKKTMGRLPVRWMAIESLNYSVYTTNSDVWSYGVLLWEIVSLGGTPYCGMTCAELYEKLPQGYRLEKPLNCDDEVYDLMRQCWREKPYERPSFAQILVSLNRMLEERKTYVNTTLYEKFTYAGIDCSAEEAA
# Sequence of Insulin-like growth factor 1 receptor (Homo sapiens) (P08069 31-736 limits assumed): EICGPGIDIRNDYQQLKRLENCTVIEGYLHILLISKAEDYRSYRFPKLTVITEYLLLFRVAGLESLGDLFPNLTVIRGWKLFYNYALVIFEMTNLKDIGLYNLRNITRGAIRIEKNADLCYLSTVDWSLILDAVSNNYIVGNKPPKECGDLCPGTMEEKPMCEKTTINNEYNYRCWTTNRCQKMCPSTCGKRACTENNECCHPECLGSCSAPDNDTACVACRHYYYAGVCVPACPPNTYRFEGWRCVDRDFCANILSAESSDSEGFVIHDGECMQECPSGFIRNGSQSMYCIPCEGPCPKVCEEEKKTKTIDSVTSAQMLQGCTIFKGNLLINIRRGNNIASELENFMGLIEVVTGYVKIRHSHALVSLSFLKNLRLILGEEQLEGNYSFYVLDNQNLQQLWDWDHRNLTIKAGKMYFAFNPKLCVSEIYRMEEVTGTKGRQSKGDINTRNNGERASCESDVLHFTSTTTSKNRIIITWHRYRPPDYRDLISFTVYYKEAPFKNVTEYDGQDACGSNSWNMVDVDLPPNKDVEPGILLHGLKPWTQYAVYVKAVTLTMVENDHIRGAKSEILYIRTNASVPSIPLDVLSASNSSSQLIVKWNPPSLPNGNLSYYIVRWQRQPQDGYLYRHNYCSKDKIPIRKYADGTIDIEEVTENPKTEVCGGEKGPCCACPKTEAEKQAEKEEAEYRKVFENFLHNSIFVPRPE
# Sequence of Insulin-like growth factor 1 receptor (Homo sapiens) (P08069 741-1367 limits assumed): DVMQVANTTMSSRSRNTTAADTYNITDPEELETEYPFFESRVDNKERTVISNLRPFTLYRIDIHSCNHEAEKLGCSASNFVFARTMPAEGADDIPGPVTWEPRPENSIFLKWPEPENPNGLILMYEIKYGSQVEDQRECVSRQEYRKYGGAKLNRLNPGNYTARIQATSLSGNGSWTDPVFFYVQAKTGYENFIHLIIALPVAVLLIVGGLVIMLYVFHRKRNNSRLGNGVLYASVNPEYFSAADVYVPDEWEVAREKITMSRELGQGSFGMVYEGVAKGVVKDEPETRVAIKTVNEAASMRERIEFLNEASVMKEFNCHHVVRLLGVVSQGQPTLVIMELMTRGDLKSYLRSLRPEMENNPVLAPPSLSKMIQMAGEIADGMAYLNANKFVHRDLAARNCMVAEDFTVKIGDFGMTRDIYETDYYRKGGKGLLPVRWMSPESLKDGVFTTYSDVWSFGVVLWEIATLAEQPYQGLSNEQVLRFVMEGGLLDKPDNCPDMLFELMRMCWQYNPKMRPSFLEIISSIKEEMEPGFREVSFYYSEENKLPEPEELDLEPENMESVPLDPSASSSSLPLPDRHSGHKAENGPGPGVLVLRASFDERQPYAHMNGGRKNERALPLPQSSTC
# Sequence of Vascular endothelial growth factor receptor 1 (Homo sapiens) (P17948 whole entry): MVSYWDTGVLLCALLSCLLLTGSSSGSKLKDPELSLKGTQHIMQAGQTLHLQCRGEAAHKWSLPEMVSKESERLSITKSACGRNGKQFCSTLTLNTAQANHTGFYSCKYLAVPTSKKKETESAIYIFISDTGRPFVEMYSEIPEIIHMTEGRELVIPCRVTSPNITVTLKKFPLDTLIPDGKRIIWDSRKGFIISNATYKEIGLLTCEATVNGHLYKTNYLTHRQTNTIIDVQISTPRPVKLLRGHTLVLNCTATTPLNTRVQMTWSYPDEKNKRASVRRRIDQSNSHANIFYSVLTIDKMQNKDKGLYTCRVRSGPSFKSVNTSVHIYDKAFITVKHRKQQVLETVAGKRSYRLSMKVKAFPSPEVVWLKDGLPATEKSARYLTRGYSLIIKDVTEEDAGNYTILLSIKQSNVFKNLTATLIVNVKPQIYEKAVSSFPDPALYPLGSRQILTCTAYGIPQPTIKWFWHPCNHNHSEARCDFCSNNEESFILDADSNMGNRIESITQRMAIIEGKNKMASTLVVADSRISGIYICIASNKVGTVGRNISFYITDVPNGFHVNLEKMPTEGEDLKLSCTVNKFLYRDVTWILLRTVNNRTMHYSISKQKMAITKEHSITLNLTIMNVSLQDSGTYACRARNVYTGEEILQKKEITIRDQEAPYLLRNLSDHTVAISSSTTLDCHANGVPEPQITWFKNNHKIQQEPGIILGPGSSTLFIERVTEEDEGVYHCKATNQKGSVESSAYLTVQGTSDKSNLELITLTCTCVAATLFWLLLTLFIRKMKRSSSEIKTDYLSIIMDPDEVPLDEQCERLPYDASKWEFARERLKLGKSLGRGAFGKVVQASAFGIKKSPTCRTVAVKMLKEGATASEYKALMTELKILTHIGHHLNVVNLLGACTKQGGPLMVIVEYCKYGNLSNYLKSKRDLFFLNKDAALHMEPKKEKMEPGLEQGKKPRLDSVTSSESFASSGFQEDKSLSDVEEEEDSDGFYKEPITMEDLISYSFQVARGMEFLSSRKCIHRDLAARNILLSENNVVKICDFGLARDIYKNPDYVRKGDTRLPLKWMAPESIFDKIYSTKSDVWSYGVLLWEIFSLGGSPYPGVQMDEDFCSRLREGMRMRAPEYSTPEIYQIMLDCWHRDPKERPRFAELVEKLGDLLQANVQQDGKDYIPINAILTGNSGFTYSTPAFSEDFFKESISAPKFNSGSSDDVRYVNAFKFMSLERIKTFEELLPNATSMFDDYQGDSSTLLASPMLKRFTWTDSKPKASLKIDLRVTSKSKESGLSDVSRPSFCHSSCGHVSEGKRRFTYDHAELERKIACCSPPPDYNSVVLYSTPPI
Compound,pGI50 [2] [M],pGI50 [1],further results
O=C1c2ccccc2NC(=O)[C@H]2[C@H]1[C@@H](c1ccc(Cl)cc1)C[C@]2(O)c1ccccc1,5,>4,–
COc1ccc([C@H]2C[C@](O)(c3cccc(Cl)c3)[C@H]3C(=O)Nc4ccccc4C(=O)[C@H]23)cc1,5,>4,–
O=C1c2ccccc2NC(=O)[C@H]2[C@H]1[C@@H](c1ccccc1)C[C@]2(O)c1cccc(Cl)c1,5.7,>4,–
O=C1c2ccccc2NC(=O)[C@H]2[C@H]1[C@@H](c1ccccc1)C[C@]2(O)c1ccc2c(c1)OCO2,5.6,4.1,–
O=C1c2ccccc2NC(=O)[C@H]2[C@H]1[C@@H](c1ccccc1)C[C@]2(O)c1ccc2ccccc2c1,6.7,>4,–
O=C1c2ccccc2NC(=O)[C@H]2[C@H]1[C@@H](c1cccc(Cl)c1)C[C@]2(O)c1ccccc1,5.2,>4,inhibition [3]: > 50%; inhibition [4]: > 50%; inhibition [5]: > 50%; inhibition [6]: > 50%; inhibition [7]: > 50%; inhibition [8]: > 50%; inhibition [9]: > 50%
COc1ccc([C@H]2C[C@](O)(c3ccccc3)[C@H]3C(=O)Nc4ccccc4C(=O)[C@H]23)cc1,5.1,>4,–
O=C1c2ccccc2NC(=O)[C@H]2[C@H]1C[C@@H](c1cccc(Cl)c1)[C@]2(O)c1ccccc1,4.6,5.1,–

# The next lines start with results.
pGI50 [2] [M],Compound,pGI50 [1],further results
4.7,Cc1ccc([C@@]2(O)[C@H](c3ccccc3)C[C@H]3C(=O)c4ccccc4NC(=O)[C@@H]32)cc1,5.4,–
5.4,O=C1c2ccccc2NC(=O)[C@H]2[C@H]1C[C@@H](c1ccccc1)[C@]2(O)c1ccccc1,5.4,–
5.7,Cc1ccc([C@@]2(O)[C@H](c3ccc(Cl)cc3)C[C@H]3C(=O)c4ccccc4NC(=O)[C@@H]32)cc1,5.3,–
5.1,Cc1ccc([C@@H]2C[C@H]3C(=O)c4ccccc4NC(=O)[C@@H]3[C@@]2(O)c2ccccc2)cc1,5.6,–
4.9,COc1ccc([C@@H]2C[C@H]3C(=O)c4ccccc4NC(=O)[C@@H]3[C@@]2(O)c2ccccc2)cc1,5.6,–
5.4,O=C1c2ccccc2NC(=O)[C@H]2[C@H]1C[C@@H](c1ccc(Cl)cc1)[C@]2(O)c1ccccc1,5.6,–
5.4,Cc1ccc([C@@H]2C[C@H]3C(=O)c4ccccc4NC(=O)[C@@H]3[C@@]2(O)c2ccc(C)cc2)cc1,5.2,–
